# Measured values as given in US7812172B2, “Thiazolothiazole derivative” (Fuji Xerox Co., Ltd., priority 2008, dated 2010).
# Like-named read-outs stand apart in the source and are kept apart here.
# Test: Evaluation of solubility of thiazolothiazole derivatives in organic solvents
# Assay type: physicochemical
# Conditions: for solubility: organic solvent or mixture, thermodynamic from solid, 25° C., else heated to boiling temperature, naked eye
# Protocol: In the present exemplary embodiment, the term “dissolve” refers to a state in which, after the thiazolothiazole derivative according to the present exemplary embodiment is added to an organic solvent, no crystal is observed by observation with the naked eye. The term “high solubility” or “good solubility” refers to such properties that the thiazolothiazole derivative dissolves at the boiling temperature of the organic solvent.
# The solubility test is performed as follows:
# 10 mg (1.0 weight %) of an exemplary compound to be tested is dissolved in 1 ml of a solvent (such as dichlorobenzene, monochlorobenzene, chloroform, THF, toluene or xylene). […] The degree of dissolution is observed with the naked eye.
# A: dissolves even when heating is not conducted
# B: completely dissolves when heating is conducted
# C: a large proportion thereof dissolves when heating is conducted
# D: a small proportion thereof dissolves when heating is conducted
# [1] = 10 mg (1.0 weight %) in 1 ml THF, read-out: Solubility THF
# [2] = 10 mg (1.0 weight %) in 1 ml chloroform, read-out: Solubility Chloroform
# [3] = 10 mg (1.0 weight %) in 1 ml dichlorobenzene, read-out: Solubility Dichlorobenzene
# [4] = 10 mg (1.0 weight %) in 1 ml monochlorobenzene, read-out: Solubility Monochlorobenzene
# [5] = 10 mg (1.0 weight %) in 1 ml toluene, read-out: Solubility Toluene
# [6] = 10 mg (1.0 weight %) in 1 ml xylene, read-out: Solubility Xylene
SMILES,solubility [1] [µg/mL],solubility [2] [µg/mL],solubility [3] [µg/mL],solubility [4] [µg/mL],solubility [5] [µg/mL],solubility [6] [µg/mL],"Solubility in organic solvents (in words) (organic solvents, general statement)"
CCCCCCCCc1ccc(-c2cc(CCCCCCCC)c(-c3nc4sc(-c5sc(-c6ccc(CCCCCCCC)cc6)cc5CCCCCCCC)nc4s3)s2)cc1 [Exemplary Compound (27)],> 10000,> 10000,> 10000,> 10000,> 10000,> 10000,–
CCCCCCCCCCCCc1ccc(-c2cc(CCCCCCCC)c(-c3nc4sc(-c5sc(-c6ccc(CCCCCCCCCCCC)cc6)cc5CCCCCCCC)nc4s3)s2)cc1 [Exemplary Compound (28)],> 10000,> 10000,> 10000,> 10000,> 10000,> 10000,–
CCCCOc1ccc(-c2ccc(-c3nc4sc(-c5ccc(-c6ccc(OCCCC)cc6)s5)nc4s3)s2)cc1 [Exemplary Compound (11)],< 10000,< 10000,< 10000,< 10000,< 10000,< 10000,–
CCCCc1ccc(-c2ccc(-c3nc4sc(-c5ccc(-c6ccc(CCCC)cc6)s5)nc4s3)s2)cc1 [Exemplary Compound (1)],< 10000,< 10000,< 10000,< 10000,< 10000,< 10000,–

# Results, then the molecule that gave them:
solubility [1] [µg/mL],solubility [2] [µg/mL],solubility [3] [µg/mL],solubility [4] [µg/mL],solubility [5] [µg/mL],solubility [6] [µg/mL],"Solubility in organic solvents (in words) (organic solvents, general statement)",SMILES
> 10000,> 10000,> 10000,> 10000,> 10000,> 10000,–,CCCCCCCCc1cc(-c2ccc(CCCC)cc2)sc1-c1nc2sc(-c3sc(-c4ccc(CCCC)cc4)cc3CCCCCCCC)nc2s1 [Exemplary Compound (25)]
< 10000,< 10000,< 10000,< 10000,< 10000,< 10000,hardly dissolves,"c1csc(-c2ccc(-c3nc4sc(-c5ccc(-c6cccs6)s5)nc4s3)s2)c1 [Compound 3, reference compound]"
> 10000,< 10000,> 10000,> 10000,< 10000,< 10000,–,CCCCCCCCc1ccc(-c2cc(C)c(-c3nc4sc(-c5sc(-c6ccc(CCCCCCCC)cc6)cc5C)nc4s3)s2)cc1 [Exemplary Compound (8)]
< 10000,< 10000,< 10000,< 10000,< 10000,< 10000,–,CC(C)(C)c1ccc(-c2ccc(-c3nc4sc(-c5ccc(-c6ccc(C(C)(C)C)cc6)s5)nc4s3)s2)cc1 [Exemplary Compound (15)]
